Data as given in patent US7659298B2, “Pyrazole derivatives and use thereof as orexin receptor antagonists” (sanofi-aventis, priority 2003, dated 2010).
Where no end group is shown, it is not given here.

What was measured:
[1] = molecular target: T1, human recombinant orexin-2 (hr-OX-2) receptor (Homo sapiens, UniProt O43614); test: hr-125I-orexin-A radioligand competition binding, orexin-2 receptor; conditions: read-out: Orex-2 IC50
T1 construct: expressed in transfected cells; host or cells: CHO cells (CHO-hr-OX-2), purified plasma membrane fraction
T1 sequence (O43614 1-444): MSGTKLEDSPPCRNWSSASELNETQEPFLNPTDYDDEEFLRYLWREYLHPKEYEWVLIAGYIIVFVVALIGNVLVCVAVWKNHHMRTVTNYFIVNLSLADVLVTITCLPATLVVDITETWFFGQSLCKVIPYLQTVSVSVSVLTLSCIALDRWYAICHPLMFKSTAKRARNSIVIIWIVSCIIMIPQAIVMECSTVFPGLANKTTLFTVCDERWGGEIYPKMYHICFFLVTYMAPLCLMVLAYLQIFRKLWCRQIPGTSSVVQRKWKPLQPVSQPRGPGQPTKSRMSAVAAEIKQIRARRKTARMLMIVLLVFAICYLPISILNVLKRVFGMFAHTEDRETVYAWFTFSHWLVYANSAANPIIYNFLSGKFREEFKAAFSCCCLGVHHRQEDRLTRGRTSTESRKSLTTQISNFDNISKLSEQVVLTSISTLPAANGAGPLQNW
Experimental: (§1) In vitro radioligand binding assays were used for determination of the affinities of the compounds for both the orexin-1 and orexin-2 receptors.
(§2) In the frame of hr-^125I-orexin-A radioligand competition (displacement) experiments a fixed concentration of hr-^125I-orexin-A is incubated with increasing concentrations of unlabeled test compound in the presence of highly purified plasmamembranes bearing either the human recombinant orexin-1 (hr-OX-1) or the human recombinant orexin-2 (hr-OX-2) receptors. Specific binding of hr-^125I-orexin-A to plasmamembranes is measured at each concentrations of the unlabeled compound and thus a competition curve is generated. The concentration of unlabeled compound displacing 50% of specific binding (IC50) is calculated. In case of competitive interaction the binding affinity constant of the unlabeled compound (KI) is calculated according to the Cheng-Prusoff equation ([…]. Affinity of unlabeled compound for the receptor is equal to 1/KI.
(§3) Culturing the Chinese hamster ovarian cells expressing human recombinant orexin-1 or orexin-2 receptor proteins (CHO-hr-OX-1 or CHO-hr-OX-2 cells) was carried out in cell culture medium (MEM medium, supplemented with 40 mg/l prolin, 20 mg/l gentamycin, 300 mg/l geneticin, 10% dialysed fetal calf serum).
(§4) Adherent cells were plated into Greiner flasks (175 cm^2). 4-6 days later culture medium was removed and cells were scarped in calcium- and magnesium-free phosphate buffered saline (PBS, 20 ml/flask). The cell suspension was centrifuged at 1,000 g for 5 minutes (4° C.). The resulting pellet was resuspended and homogenized with a teflon pestle (4° C.), then layered onto a discontinous sucrose gradient and centrifuged at 105,000 g. […]
(§5) Serial dilution series were prepared from stock solutions (100% DMSO) with binding assay buffer in such a way that each samples contained a final concentration of 1% of DMSO in the receptor binding reaction mixture. […] The radioactivity remained on the filter was counted in a gamma counter (Wallac Automatic Gamma Counter 1470 Wizard).

[2] = molecular target: T2, human recombinant orexin-1 (hr-OX-1) receptor (Homo sapiens, UniProt O43613); test: hr-125I-orexin-A radioligand competition binding, orexin-1 receptor; conditions: read-out: Orex-1 IC50
T2 construct: expressed in transfected cells; host or cells: CHO cells (CHO-hr-OX-1), purified plasma membrane fraction
T2 sequence (O43613 1-425): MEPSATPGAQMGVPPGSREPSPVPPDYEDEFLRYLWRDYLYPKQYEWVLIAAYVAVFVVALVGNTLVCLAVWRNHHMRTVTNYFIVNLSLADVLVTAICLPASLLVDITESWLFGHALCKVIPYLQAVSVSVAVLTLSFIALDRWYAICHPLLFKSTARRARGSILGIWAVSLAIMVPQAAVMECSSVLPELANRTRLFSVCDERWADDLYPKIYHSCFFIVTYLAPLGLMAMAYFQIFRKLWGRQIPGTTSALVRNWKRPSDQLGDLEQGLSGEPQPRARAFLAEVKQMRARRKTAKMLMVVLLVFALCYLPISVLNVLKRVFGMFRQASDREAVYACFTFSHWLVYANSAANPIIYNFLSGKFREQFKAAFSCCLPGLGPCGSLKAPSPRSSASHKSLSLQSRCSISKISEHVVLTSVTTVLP
Experimental: as §1, §2, §3, §4, §5

orexin-1 receptors = conditions: cited from earlier work

IC50 [1] [nM]	IC50 [2] [nM]	melting point [°C]	Compound	fold more effective on the orexin-1 receptors compared to orexin B (orexin-1 receptors)
156	33		Cn1nc(-c2ccccc2)c(CSc2ccccc2C(=O)Nc2ccc3ccccc3c2)c1Cl	
1100	51		Cn1nc(-c2ccncc2)c(COc2ccccc2C(=O)Nc2cnc3ccccc3c2)c1Cl [2-(5-Chloro-1-methyl-3-pyridin-4-yl-1H-pyrazol-4-ylmethoxy)-N-quinolin-3-ylbenzamide]	
680	57		Cn1nc(-c2cccnc2)c(CCc2ccccc2C(=O)Nc2cnc3ccccc3c2)c1Cl [2-[2-(5-Chloro-1-methyl-3-pyridin-3-yl-1H-pyrazol-4-yl)ethyl]-N-quinolin-3-ylbenzamide]	
		170	Cn1nc(-c2ccccc2)c(COc2ccccc2C(=O)Nc2cnc3ccccc3c2)c1Cl [Example 65, 2-(3-Phenyl-5-chloro-1-methyl-1H-pyrazol-4-ylmethoxy)-N-quinolin-3-ylbenzamide]	
			orexin A: "Orexin A consists of 33 aminoacid residues with two intramolecular disulphide bridges" (QPLPDCCRQKTCSCRLYELLHGAGNHAAGILTL; disulfide (positions not given here); ends not checked; UniProt O43612 34-66, looked up)	10-50 fold
